From patent US10202369B2, “1,3-thiazol-2-yl substituted benzamides” (BAYER AKTIENGESELLSCHAFT, priority 2014, dated 2019)

Experiments:
[1] = In vitro metabolic stability in liver microsomes (calculated Fmax); type: in vitro ADME, human; conditions: 1 μM, calculated maximal oral bioavailability
Method: In Vitro Metabolic Stability Assays Determination of in vitro Metabolic Stability in Microsomes (Including Calculation of Hepatic in vivo Blood Clearance (CL) and of Maximal Oral Bioavailability (Fmax))
The metabolic assay was started shortly afterwards by adding the test compound to the incubation at a final volume of 1 mL. Organic solvent in the incubations was limited to ≤0.01% dimethylsulfoxide (DMSO) and ≤1% acetonitrile. […] Samples were frozen at −20° C. overnight, subsequently centrifuged for 15 minutes at 3000 rpm and the supernatant was analyzed with an Agilent 1200 HPLC-system with LCMS/MS detection.
The half-life of a test compound was determined from the concentration-time plot. From the half-life (kel: slope of concentration-time plot; half-life=In2/kel) the intrinsic clearances were calculated. Together with the additional parameters liver blood flow, specific liver weight and microsomal protein content the hepatic in vivo blood clearance (CL) and the maximal oral bioavailability (Fmax) were calculated for the different species.
(§1) Metabolic instability is often the main clearance mechanism of xenobiotica leading to a high CL and low bioavailability which may eventually result in a short half-life and a low exposure after oral administration. Thus, reducing the susceptibility of metabolic degradation usually leads to a more favourable pharmacokinetic profile. When using liver microsomes as incubation matrix main phase I metabolic reactions, typically oxidoreductive reactions by cytochrome P450 enzymes and flavin mono-oxygenases (FMO) and hydrolytic reactions by esterases/amidases/epoxidhydrolases, are described. When the incubation of the test compound is performed in a hepatocyte matrix all potential hepatic metabolic processes (phase I and phase II) are covered.

rat hepatocytes = assay: In vitro metabolic stability in rat hepatocytes (calculated Fmax); type: in vitro ADME, Han Wistar rats; conditions: 1 μM, calculated maximal oral bioavailability
Method: Determination of in Vitro Metabolic Stability in Rat Hepatocytes (Including Calculation of Hepatic in Vivo Blood Clearance (CL))
Hepatocytes from Han Wistar rats were isolated via a 2-step perfusion method. After perfusion, the liver was carefully removed from the rat: the liver capsule was opened and the hepatocytes were gently shaken out into a Petri dish with ice-cold Williams' medium E (WME). The resulting cell suspension was filtered through sterile gaze in 50 mL falcon tubes and centrifuged at 50×g for 3 min at room temperature. The cell pellet was resuspended in 30 mL WME and centrifuged through a Percoll® gradient for 2 times at 100×g. The hepatocytes were washed again with WME and resuspended in medium containing 5% FCS. Cell viability was determined by trypan blue exclusion. […] The test compound was added to a final concentration of 1 μM. […] Samples were frozen at −20° C. overnight, subsequently centrifuged for 15 minutes at 3000 rpm and the supernatant was analyzed with an Agilent 1200 HPLC-system with LCMS/MS detection.
The half-life of a test compound was determined from the concentration-time plot. From the half-life (kel: slope of concentration-time plot; half-life=In2/kel) the intrinsic clearances were calculated. Together with the additional parameters liver blood flow, amount of liver cells in vivo and in vitro.
as §1

[2] = clinical PhII trials; attributed to blockade of P2X2/3 channels; cited from earlier work
vaginal hyperalgesia = assay: Rat dyspareunia model (visceromotor response to vaginal distension); type: in vivo, Sprague Dawley rats; conditions: 15 mg/kg oral b.i.d. during 2 weeks
Excerpt: The visceromotor response (VMR) to vaginal distension was used in conscious animals as an objective measure of vaginal sensitivity. Briefly, animals in estrus phase were surgically implanted with biopsies of left uterine horn (3×3 mm) around alternate cascade mesenteric arteries that supply the small intestine (4 pieces) and on the wall of the distal colon (2 pieces). To measure VMR response, 2 Teflon-coated wire electrodes were sutured in the external oblique abdominal muscle, and tunneled subcutaneously to be exteriorized at the base of the neck for future access. On the day of VMR assessment, a lubricated small balloon (1 cm length) was inserted into the mid-vaginal canal. […] The electrodes were connected to an amplifier (Animal Bio Amp, ADlnstruments), and the abdominal electromyographic signal was recorded using a data acquisition system (PowerLab, ADlnstruments) for off-line analysis using LabChart version 7. The number of abdominal muscle contractions was counted manually for each 0.1 ml distension step, as an index of vaginal pain. […] All data were expressed as mean±standard deviation (s.d.), for the number (n) of measured rats per group. […] Planned comparison of means (matched-volume versus vehicle) was performed using a Bonferroni post hoc test, provided that a main effect was detected. […]

human P2X3 receptor = human P2X3 receptor (Homo sapiens (Human), UniProt P56373); assay: Intracellular calcium measurement (FLIPR, Fluo-4) of antagonist activity at human P2X3 receptor; type: cell-based; conditions: human P2X3, FLIPR Fluo-4 calcium, agonist α,β-Me-ATP at EC80; read-out: hP2X3 IC50
Method: (§2) Intracellular Calcium Measurement to Assess Antagonist Activity at Human P2X3 and Human P2X2/3 Receptors
(§3) A fluorescent imaging plate reader (FLEX/FLIPR station; Molecular Devices) was used to monitor intracellular calcium levels using the calcium-chelating dye Fluo-4 (Molecular Probes). […] Cells expressing purinergic receptors P2X3 (human) or P2X2/3 (human) were plated at a density of 15,000 cells/well in collagen-coated 384-well plates approximately 20 hours before beginning the assay. […] The test compound was added in a volume of 5 μl and allowed to incubate for 30 min at 37° C. The final assay DMSO concentration is 1%.
(§4) The agonist, α,β-Me-ATP, was added in a volume of 20 μl at a concentration representing the EC80 value. The fluorescence was measured for an interval of 90 sec at 2 sec intervals and analyzed based on the increase in peak relative fluorescence units (RFU) compared to the basal fluorescence. Peak fluorescence was used to determine the response to agonist obtained at each concentration of test compound by the following equation: % Response=100*(RFU(test compound)−RFU(control))/(RFU(DMSO)−RFU(control))
(§5) The Examples were tested in triplicates per plate and mean values were plotted in Excel XLFit to determine IC5o values at the human P2X3 and human P2X2/3 receptors, percentage of maximal inhibition and the Hill coefficients.

human P2X2/3 receptor = human P2X2/3 receptor (Homo sapiens (Human), UniProt P56373+Q9UBL9); assay: Intracellular calcium measurement (FLIPR, Fluo-4) of antagonist activity at human P2X2/3 receptor; type: cell-based; conditions: human P2X2/3, FLIPR Fluo-4 calcium, agonist α,β-Me-ATP at EC80; read-out: hP2X2/3 IC50
Method: as §2, §3, §4, §5

Chain of human P2X3 receptor (P56373 whole entry): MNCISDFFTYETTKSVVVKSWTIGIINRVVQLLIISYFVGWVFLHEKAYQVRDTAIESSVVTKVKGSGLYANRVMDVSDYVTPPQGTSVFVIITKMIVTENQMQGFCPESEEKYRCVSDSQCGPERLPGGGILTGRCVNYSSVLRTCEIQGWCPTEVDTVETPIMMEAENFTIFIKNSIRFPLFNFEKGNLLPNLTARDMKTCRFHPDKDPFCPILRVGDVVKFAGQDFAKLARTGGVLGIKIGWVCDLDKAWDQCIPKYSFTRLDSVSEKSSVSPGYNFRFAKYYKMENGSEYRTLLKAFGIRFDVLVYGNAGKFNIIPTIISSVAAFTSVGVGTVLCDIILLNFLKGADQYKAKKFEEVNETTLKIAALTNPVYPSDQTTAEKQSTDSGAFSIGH
Chain of human P2X2/3 receptor (P56373 whole entry): as above
Chain of human P2X2/3 receptor (Q9UBL9 whole entry): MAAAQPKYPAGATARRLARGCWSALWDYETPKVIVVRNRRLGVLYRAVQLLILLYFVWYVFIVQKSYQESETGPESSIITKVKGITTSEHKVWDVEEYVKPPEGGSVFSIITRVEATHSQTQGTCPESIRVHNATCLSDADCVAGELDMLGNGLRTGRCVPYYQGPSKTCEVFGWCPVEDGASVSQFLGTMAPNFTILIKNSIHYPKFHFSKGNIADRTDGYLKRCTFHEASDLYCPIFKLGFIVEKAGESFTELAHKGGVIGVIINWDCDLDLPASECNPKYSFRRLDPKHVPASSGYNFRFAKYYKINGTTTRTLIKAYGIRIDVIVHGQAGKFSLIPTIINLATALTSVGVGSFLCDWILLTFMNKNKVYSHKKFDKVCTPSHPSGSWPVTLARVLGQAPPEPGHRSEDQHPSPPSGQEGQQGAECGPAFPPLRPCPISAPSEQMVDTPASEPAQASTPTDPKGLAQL

Row | Structure (SMILES) | Human liver microsome Fmax [1] [%] | Rat hepatocyte Fmax (rat hepatocytes) [%] | other results
1 | Cc1cnc(-c2cc(OC(C)C(C)O)cc(C(=O)N[C@H](C)c3cnc(C(F)(F)F)nc3)c2)s1 (single isomer, unassigned) [Example 163] | 100 | 53 | 
2 | Cc1cnc(-c2cc(OC(C)C(C)O)cc(C(=O)N[C@H](C)c3ccc(C(F)(F)F)nn3)c2)s1 (single isomer, unassigned) [Example 183] | 74 | 43 | 
3 | Cc1cnc(-c2cc(OC(C)C(C)O)cc(C(=O)N[C@H](C)c3cnc(C(F)(F)F)nc3)c2)s1 (single isomer, unassigned) [Example 339] | 94 | 52 | 
4 | Cc1cnc(-c2cc(OC(C)C(C)O)cc(C(=O)N[C@H](C)c3cnc(C(F)(F)F)nc3)c2)s1 (single isomer, unassigned) [Example 340] | 90 | 64 | 
5 | COc1cc(C(C)C)c(Oc2cnc(N)nc2N)cc1S(N)(=O)=O [AF-219] |  |  | taste disturbances in treated subjects [2]: taste disturbances
6 | Cc1cnc(-c2cc(O[C@@H]3CCOC3)cc(C(=O)N[C@H](C)c3cnc(C(F)(F)F)nc3)c2)s1 [Example 11, 3-(5-Methyl-1,3-thiazol-2-yl)-5-[(3R)-tetrahydrofuran-3-yloxy]-N-{(1R)-1-[2-(trifluoromethyl)pyrimidin-5-yl]ethyl}benzamide] | 57 | 52 | Vaginal hyperalgesia compared to vehicle-treated animals (vaginal hyperalgesia): decreased vaginal hyperalgesia
7 | Cc1cnc(-c2cc(O[C@H]3CCOC3)cc(C(=O)N[C@H](C)c3cnc(C(F)(F)F)nc3)c2)s1 [Example 26, 3-(5-methyl-1,3-thiazol-2-yl)-5-[(3S)-tetrahydrofuran-3-yloxy]-N-{(1R)-1-[2-(trifluoromethyl)pyrimidin-5-yl]ethyl}benzamide] | 67 | 56 | 
8 | CCc1cnc(-c2cc(OC[C@H]3CCCO3)cc(C(=O)N[C@H](C)c3cnc(C)cn3)c2)s1 [Example 277, 3-(5-ethyl-1,3-thiazol-2-yl)-N-[(1R)-1-(5-methypyrazin-2-yl)ethyl]-5-[(3S)-tetrahydrofuran-3-ylmethoxy]benzamide] |  |  | IC50 (human P2X3 receptor): 0.006 µM; IC50 (human P2X2/3 receptor): 0.096 µM
9 | CCc1cnc(-c2cc(OC[C@H]3CN(C)CCO3)cc(C(=O)N[C@H](C)c3ccc(C(F)(F)F)nn3)c2)s1 [Example 419, 3-(5-ethyl-1,3-thiazol-2-yl)-5-{[(2R)-4-methyl-morpholin-2-yl]methoxy}-N-{(1R)-1-[6-(trifluoromethyl)pyridazin-3-yl]ethyl} benzamide] | 74 | 51 | 
